Measurements taken from US20160120805A1, “EXOSOMES FOR OROFACIAL DIAGNOSTICS AND THERAPEUTICS” (THE TRUSTEES OF COLUMBIA UNIVERSITY IN THE CITY OF NEW YORK, priority 2013, published 2016).

Tests used:
[1] = test system: reconstituted dental epithelium and mesenchyme tissues; experiment: Organ culture of reconstituted E16.5 dental epithelium and mesenchyme tissue, dentin formation; assay type: cell-based; settings: 10 uM, control formed dentin at day 10
Method: E16.5 epithelium and mesenchyme tissue (see e.g., FIG. 9A) were reconstituted (see e.g., FIG. 9B) under dissection microscope. The reconstituted organ were cultured for 12 days (see e.g., FIG. 9C-D).

exosome secretion = experiment: Exosome secretion measured by protein concentration; assay type: cell-based

SMILES: O=C(/C=C/c1ccc(/C=C/C(=O)Nc2ccc(C3=NCCN3)cc2)cc1)Nc1ccc(C2=NCCN2)cc1 [GW4869]
- dentin formation [1]: No dentin formed
- exosome secretion (exosome secretion; 1.0 uM): decreased
- exosome secretion (exosome secretion; 10.0 uM): decreased
